# Measured values: ChEMBL document CHEMBL1201862, “PubChem BioAssay data set” (2004)
# The source made the active and inactive calls.
# What was measured:
# [1] = biological target: T1, Calpain-2 catalytic subunit (Sus scrofa, UniProt P43367); test: pig calpain II inhibitor potency, dose response, biochemical, fluorogenic peptide substrate (AID 1420); type: functional
# T1 sequence (P43367 whole entry): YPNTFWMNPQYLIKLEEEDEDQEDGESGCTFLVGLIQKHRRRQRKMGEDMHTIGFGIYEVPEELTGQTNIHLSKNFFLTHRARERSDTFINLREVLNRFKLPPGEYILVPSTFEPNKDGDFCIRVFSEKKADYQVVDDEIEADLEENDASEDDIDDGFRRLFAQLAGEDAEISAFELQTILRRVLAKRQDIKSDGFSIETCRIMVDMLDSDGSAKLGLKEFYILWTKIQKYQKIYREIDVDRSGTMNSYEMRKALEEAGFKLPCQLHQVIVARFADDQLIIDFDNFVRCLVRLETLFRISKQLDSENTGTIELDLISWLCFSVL
# H9c2 = test: cells; type: functional, cell-based; settings: Rattus norvegicus, H9c2, Myocardium;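 further: confirmatory concentration-response retest of ultra-high-throughput screening hits for modulation of myocardial damage; cell death induced by hydrogen peroxide oxidative stress; compound pretreatment for 60 min then peroxide exposure for 2 h; potency is for protecting the cells against peroxide damage rather than for killing them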
# [2] = biological target: T2, Short transient receptor potential channel 4 (Mus musculus, UniProt Q9QUQ5); test: mouse TRPC4 channel activators, dose response, cell-based, HEK293 TRPC4/mu-opioid, Fluo-4 calcium (AID 434937); type: functional
# T2 sequence (Q9QUQ5 whole entry): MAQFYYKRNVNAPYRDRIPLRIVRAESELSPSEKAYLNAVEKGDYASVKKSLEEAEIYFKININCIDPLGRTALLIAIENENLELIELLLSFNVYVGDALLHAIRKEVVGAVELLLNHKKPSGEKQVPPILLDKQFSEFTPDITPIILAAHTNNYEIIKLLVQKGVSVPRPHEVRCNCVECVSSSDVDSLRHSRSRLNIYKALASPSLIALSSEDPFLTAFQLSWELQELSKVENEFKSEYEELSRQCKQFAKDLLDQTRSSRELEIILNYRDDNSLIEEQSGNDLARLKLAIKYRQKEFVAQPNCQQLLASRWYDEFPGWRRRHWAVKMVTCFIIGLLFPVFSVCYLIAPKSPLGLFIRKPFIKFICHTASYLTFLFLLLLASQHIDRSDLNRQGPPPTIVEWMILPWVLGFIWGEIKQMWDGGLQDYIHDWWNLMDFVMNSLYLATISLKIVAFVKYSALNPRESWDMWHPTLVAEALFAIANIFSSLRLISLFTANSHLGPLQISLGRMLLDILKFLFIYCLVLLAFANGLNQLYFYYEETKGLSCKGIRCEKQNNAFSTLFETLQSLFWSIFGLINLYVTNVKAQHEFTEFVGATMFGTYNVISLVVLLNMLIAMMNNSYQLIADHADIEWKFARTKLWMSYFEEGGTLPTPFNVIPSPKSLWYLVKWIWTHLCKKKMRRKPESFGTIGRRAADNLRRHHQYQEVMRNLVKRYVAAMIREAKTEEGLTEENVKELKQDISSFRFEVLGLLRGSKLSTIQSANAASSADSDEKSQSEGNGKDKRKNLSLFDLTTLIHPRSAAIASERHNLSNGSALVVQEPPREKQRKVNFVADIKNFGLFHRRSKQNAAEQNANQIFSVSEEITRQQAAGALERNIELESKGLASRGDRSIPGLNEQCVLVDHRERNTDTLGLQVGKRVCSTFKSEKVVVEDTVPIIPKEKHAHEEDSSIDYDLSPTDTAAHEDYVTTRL
# [3] = biological target: T3, Carboxy-terminal domain RNA polymerase II polypeptide A small phosphatase 1 (Homo sapiens, UniProt Q9GZU7); test: inhibitors of CTDSP1, concentration-response testing, biochemical assay, absorbance-based, actives from ultra-high-throughput screening (AID 540297); type: functional
# T3 sequence (Q9GZU7 whole entry): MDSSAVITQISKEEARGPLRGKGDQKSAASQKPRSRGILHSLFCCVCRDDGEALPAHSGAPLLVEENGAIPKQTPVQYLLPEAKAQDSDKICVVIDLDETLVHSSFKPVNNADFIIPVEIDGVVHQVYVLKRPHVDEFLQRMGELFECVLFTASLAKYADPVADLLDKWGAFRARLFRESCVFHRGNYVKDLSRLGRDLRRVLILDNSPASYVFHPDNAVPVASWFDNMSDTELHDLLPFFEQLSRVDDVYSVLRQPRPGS
# Genome polyprotein = Genome polyprotein (dengue virus type 2, UniProt P29990); test: Dengue-2 NS5 methyltransferase inhibitors, primary screen, biochemical, confirmation dose response (AID 588689); type: functional
# [4] = inhibitors of intracellular T. cruzi replication, confirmation, NIH3T3 host cells, beta-gal luminescence (AID 2044); type: functional, cell-based;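 further: intracellular parasites grown in NIH/3T3 mouse fibroblasts as host cells; luminescent beta-galactosidase reporter signal from transgenic T. cruzi replicating inside host cells; inhibitors lower the luminescence signal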
# [5] = cytotoxicity toward NIH3T3 fibroblasts, dose response, counter-screen, cell-based, ATP luminescence, mouse fibroblasts (AID 2010); type: functional;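 further: cells exposed to compound for about 90 hours before reading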
# [6] = THP-1 cell cytotoxicity, dose response, cytotoxicity control for non-replicating M. tuberculosis project (AID 489025); type: functional
# [7] = Vero E6 cell cytotoxicity, dose response, cytotoxicity control for non-replicating M. tuberculosis project, secondary assay (AID 492998); type: functional, VeroE6; settings: Vero C1008
# cells = type: functional
# [8] = inhibitors of firefly luciferase expression or activity, dose response, H4 neuroglioma cells, luminescence (AID 1990); type: functional, cell-based
# Streptococcus = test: Group A Streptococcus viability loss, dose response, counter-screen for streptokinase expression inhibitor project, luminescence, BacTiterGlo (AID 1915); type: functional, organism-based;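 further: potency for reduction of bacterial viability or growth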
# [9] = system: Streptococcus sp. 'group A'; test: growth inhibition of control SK(-) GAS strain, dose response, counter-screen for streptokinase expression inhibitor project, luminescence, kanamycin, BacTiterGlo, confirmation (AID 1900); type: functional, organism-based
# [10] = Luminescence Cell-Based Dose Response HTS to Identify Inhibitors of 5'UTR Stem-Loop Driven Prion Protein mRNA Translation in H4 Neuroglioblastoma Cells. [Related pubchem assays: 1827 (Project Summary), 1813 (Primary HTS)]; type: functional
# [11] = inhibitors of SNCA 5'UTR-driven reporter translation, confirmation, H4 neuroglioma cells, luminescence (AID 1988); type: functional, cell-based
# [12] = biological target: T4, Heat shock factor protein 1 (Mus musculus, UniProt P38532); test: HSF1 potentiators in luciferase reporter cells, confirmation, cell-based, NIH3T3, luminescence, dose retest (AID 435004); type: functional;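 further: stress induced by proteasome inhibitor MG132 added 30 min after compound; luciferase reporter driven by HSF1 response element in NIH3T3 cells; actives raise luminescence as potentiators of the MG132 stress response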
# T4 sequence (P38532 whole entry): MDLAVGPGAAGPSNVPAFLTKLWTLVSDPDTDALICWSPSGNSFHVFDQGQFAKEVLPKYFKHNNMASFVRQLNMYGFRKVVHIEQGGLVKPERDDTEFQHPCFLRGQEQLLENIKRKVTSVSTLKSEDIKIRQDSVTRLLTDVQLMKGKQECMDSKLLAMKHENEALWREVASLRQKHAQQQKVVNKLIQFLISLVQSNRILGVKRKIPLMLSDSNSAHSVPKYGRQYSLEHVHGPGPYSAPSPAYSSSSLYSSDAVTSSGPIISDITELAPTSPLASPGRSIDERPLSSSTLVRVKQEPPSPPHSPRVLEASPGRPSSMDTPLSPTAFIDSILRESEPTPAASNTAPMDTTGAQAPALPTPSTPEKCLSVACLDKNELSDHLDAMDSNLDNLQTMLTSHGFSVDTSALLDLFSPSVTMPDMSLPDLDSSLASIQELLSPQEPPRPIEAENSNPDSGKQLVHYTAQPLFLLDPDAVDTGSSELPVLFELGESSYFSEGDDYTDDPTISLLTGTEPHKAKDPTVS
# [13] = NIH-3T3 fibroblast cytotoxicity, dose response, cytotoxicity control, cell-based, fluorescence, Alamar Blue, secondary assay (AID 2327); type: functional;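 further: NIH-3T3 mouse fibroblasts cultured with fluconazole at 8 µg/mL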
# [14] = C. albicans growth with fluconazole, confirmation, fluorescence, retest (AID 2467); type: functional, cell-based
# Sequence of Genome polyprotein (P29990 2492-3391 limits assumed): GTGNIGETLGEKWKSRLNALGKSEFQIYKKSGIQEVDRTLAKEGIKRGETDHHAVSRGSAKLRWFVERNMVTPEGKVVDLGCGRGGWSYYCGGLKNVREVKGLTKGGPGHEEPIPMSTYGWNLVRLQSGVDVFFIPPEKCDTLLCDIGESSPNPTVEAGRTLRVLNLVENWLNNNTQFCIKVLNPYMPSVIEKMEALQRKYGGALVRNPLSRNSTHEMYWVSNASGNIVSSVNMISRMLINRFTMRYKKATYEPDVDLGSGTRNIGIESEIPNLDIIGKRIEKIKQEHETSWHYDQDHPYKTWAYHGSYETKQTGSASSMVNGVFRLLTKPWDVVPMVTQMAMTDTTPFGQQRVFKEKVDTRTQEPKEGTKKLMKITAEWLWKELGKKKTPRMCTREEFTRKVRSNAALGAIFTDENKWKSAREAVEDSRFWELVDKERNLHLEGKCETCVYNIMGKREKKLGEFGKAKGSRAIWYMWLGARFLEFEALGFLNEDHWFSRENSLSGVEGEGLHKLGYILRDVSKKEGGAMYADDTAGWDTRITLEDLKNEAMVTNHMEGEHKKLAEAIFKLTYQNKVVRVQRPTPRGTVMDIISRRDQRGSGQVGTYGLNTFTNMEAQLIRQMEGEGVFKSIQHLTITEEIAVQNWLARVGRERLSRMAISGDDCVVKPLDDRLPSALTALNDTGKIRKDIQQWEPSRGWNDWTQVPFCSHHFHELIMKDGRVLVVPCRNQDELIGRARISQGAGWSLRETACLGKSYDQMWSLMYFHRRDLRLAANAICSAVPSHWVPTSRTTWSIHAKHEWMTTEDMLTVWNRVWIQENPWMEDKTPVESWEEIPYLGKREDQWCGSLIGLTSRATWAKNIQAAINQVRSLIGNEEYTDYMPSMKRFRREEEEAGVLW
structure (smiles),measurement,setting,value
Cc1csc2ncnc(N3CCN(C(=O)Nc4ccc(OC(F)(F)F)cc4)CC3)c12,IC50,[1],6.79 µM (not active)
CN(C(=O)COC(=O)c1cnc(Cl)c(Cl)c1)C1CCS(=O)(=O)C1 (stereo unspecified),IC50,[1],3.14 µM (not active)
CC1(C)CC2CC(C)(CN2C(=O)COC(=O)Cn2[nH]c(=O)c3ccccc3c2=O)C1 (stereo unspecified),IC50,H9c2,12.1 µM (active)
COc1cc(Br)cc(CNc2ccc(F)c([N+](=O)[O-])c2)c1O,IC50,[1],2.79 µM (active)
O=C(NCCCN1CCN(CCCNC(=O)c2ccc3c(c2)OCO3)CC1)c1ccc2c(c1)OCO2,EC50,[2],0.267 µM (active)
O=C(CN1C(=O)/C(=C2/SC(=S)N(CCS(=O)(=O)O)C2=O)c2ccccc21)Nc1cccc(Br)c1,IC50,[3],3.22 µM (active)
same,IC50,Genome polyprotein,61.6 µM (active)
COc1cc(Nc2nc3ccccc3n3nnnc23)cc(OC)c1OC,IC50,H9c2,> 79 µM (inactive)
Clc1cccc(OCCN2CCNCC2)c1,EC50,[2],0.841 µM (active)
same,EC50,[4],0.744 µM (active)
same,EC50,[5],> 60 µM (not active)
Cc1cc(N2CCN(c3ccccc3)CC2)nc(-n2nc(C)cc2C)n1,CC50,[6],> 40 µM (active)
same,CC50,[7],> 20 µM (active)
same,IC50,cells,0.94 µM (active)
CCCOc1ccc(C(=O)NNC(=S)NC(=O)c2ccccc2)cc1,EC50,[8],12.5 µM (active)
same,EC50,Streptococcus,0.762 µM (active)
same,EC50,[2],3.35 µM (active)
same,EC50,[9],0.54 µM (active)
same,EC50,[10],14.5 µM (active)
same,EC50,[11],> 120 µM (not active)
CC1(C)OC(=O)C(=Cc2ccc(-c3ccc(Cl)c(C(=O)O)c3)o2)C(=O)O1,IC50,[3],4.62 µM (active)
CSc1ccc(CCNC(=O)CSc2ccsc2[N+](=O)[O-])cc1,IC50,[3],7.88 µM (active)
COc1cccc(NC(=O)CC2SC(Nc3ccccc3)=NC2=O)c1 (stereo unspecified),IC50,[1],> 50 µM (not active)
CCCN1C(=O)c2ccccc2NC1c1ccc(Cl)c(Cl)c1 (stereo unspecified),EC50,[8],16 µM (active)
same,EC50,[12],59.6 µM (active)
same,EC50,[10],> 120 µM (not active)
same,EC50,[11],38.8 µM (active)
CC(=O)Nc1ccccc1/C=C/c1ccc2c(C)cc(C)c(O)c2n1,EC50,[13],31.3 µM (active)
same,IC50,[1],10.9 µM (not active)
same,EC50,[14],> 38 µM (not active)
CCCn1c(=O)c(C(=O)Nc2ccccc2)c(O)c2ccccc21,IC50,H9c2,9.48 µM (active)
